In patent US11731965B2, “Tetrahydroprotoberberine compound, preparation method therefor and uses thereof, and pharmaceutical composition” (SHANGHAI INSTITUTE OF MATERIA MEDICA, CHINESE ACADEMY OF …, priority 2017, dated 2023):
pIC50: −log10 of the molar value.

What was measured:
[1] = target: T1, human recombinant D2 receptor (Homo sapiens, UniProt P14416); test: D2 antagonistic activity test (LANCE cAMP, antagonism of dopamine inhibition of cAMP production in HEK293 cells); type: cell-based; settings: HEK293 cells expressing human recombinant D2 receptor; test concentration 0.1 nM to 10000 nM; read-out: D2 Antagonistic Activity (IC50, nmol/L)
T1 construct: expressed in transfected cells; host or cells: HEK293
T1 sequence (P14416 whole entry): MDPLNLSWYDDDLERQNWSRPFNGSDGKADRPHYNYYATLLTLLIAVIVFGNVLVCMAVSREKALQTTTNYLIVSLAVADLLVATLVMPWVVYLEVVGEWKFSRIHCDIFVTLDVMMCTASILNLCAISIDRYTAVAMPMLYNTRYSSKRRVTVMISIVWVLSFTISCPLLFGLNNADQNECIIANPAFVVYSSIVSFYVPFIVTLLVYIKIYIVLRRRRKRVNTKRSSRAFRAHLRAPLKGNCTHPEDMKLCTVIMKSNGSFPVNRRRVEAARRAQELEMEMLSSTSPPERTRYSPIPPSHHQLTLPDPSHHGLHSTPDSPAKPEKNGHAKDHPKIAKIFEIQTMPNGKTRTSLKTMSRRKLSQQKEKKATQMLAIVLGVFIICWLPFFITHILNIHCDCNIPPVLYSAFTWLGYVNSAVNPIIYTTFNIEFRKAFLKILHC
Method: LANCE™ cAMP 384 Kit (PerkinElmer, USA) was used to test the antagonism of the compound against the D1 receptor using the HEK293 cells expressing human recombinant D1 receptor. The D1 antagonism of the compound was evaluated by testing the antagonistic action of the compounds against dopamine on the induction of cAMP production in HEK293 cells. The cAMP concentration test was performed according to the method described in the kit instructions. The test concentration of the compound was 0.1 nM to 10000 nM. SCH23390 was used as a positive control. The IC50 was calculated by Excelfit software. The test results of some compounds were shown in Table 1. • 2) D2 antagonistic activity test LANCE™ cAMP 384 Kit (PerkinElmer, USA) was used to test the antagonism of the compound against the D2 receptor using the HEK293 cells expressing human recombinant D2 receptor. The D2 antagonism of the compound was evaluated by testing the antagonistic action of the compounds against dopamine on the inhibition of cAMP production in HEK293 cells. The cAMP concentration test was performed according to the method described in the kit instructions. The test concentration of the compound was 0.1 nM to 10000 nM. Risperidone was used as a positive control. The IC50 was calculated by Excelfit software. The test results of some compounds were shown in Table 1 (ND means the test was not performed).

[2] = target: T2, human recombinant D1 receptor (Homo sapiens, UniProt P21728); test: D1 antagonistic activity test (LANCE cAMP, antagonism of dopamine-induced cAMP production in HEK293 cells); type: cell-based; settings: HEK293 cells expressing human recombinant D1 receptor; test concentration 0.1 nM to 10000 nM; read-out: D1 Antagonistic Activity (IC50, nmol/L)
T2 construct: expressed in transfected cells; host or cells: HEK293
T2 sequence (P21728 whole entry): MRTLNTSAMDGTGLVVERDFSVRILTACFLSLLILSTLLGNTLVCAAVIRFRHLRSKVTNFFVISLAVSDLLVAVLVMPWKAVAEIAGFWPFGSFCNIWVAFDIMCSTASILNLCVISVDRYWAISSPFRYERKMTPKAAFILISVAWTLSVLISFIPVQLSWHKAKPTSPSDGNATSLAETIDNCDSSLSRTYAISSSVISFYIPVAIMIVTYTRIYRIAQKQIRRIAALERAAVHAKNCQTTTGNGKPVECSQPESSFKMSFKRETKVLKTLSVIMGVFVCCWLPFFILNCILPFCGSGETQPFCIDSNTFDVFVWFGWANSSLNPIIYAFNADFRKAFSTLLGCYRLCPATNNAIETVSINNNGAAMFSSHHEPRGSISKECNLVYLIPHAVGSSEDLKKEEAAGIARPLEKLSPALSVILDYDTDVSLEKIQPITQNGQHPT
Method: • 1) D1 antagonistic activity test
The D1 antagonism of the compound was evaluated by testing the antagonistic action of the compounds against dopamine on the induction of cAMP production in HEK293 cells. The cAMP concentration test was performed according to the method described in the kit instructions. The test concentration of the compound was 0.1 nM to 10000 nM. SCH23390 was used as a positive control. The IC50 was calculated by Excelfit software.

[3] = system: insomnia induced by injection with 4-Chlorophenylalanine (PCPA) in rats; test: Sedative and hypnotic effects, PCPA-induced insomnia model in rats treated with sodium pentobarbital; type: in vivo, Wistar rats; settings: for sleep time: FIG. 2
Method: The sedative and hypnotic effects of Example 60 were evaluated using a model of insomnia induced by injection with 4-Chlorophenylalanine (PCPA) in rats.
Dosage and method of administration: PCPA was administered at a dose of 150 mg/kg. […] was administered by a single intraperitoneal injection at 72 hours before the experiment in all Wistar rats. The diazepam group (DI) was administered at a dose of 2 mg/kg and 4 mg/kg, a single intraperitoneal injection; the test drug group was administered at a dose of 1 mg/kg and 3 mg/kg, a single intragastric administration; sodium pentobarbital was administered at a dose of 25 mg/kg, a single intraperitoneal injection. The administration volume was 10 ml/kg. On the day of the test, the model group was given sodium pentobarbital 30 minutes after the same volume of physiological saline was given; the DI group was given sodium pentobarbital 30 minutes after DI was administered; the test drug group was given sodium pentobarbital 60 minutes after the drug was administered.lndex observation: After the administration of sodium pentobarbital, the rats' response was closely observed. The time from the administration to 1 minute after the righting reflex disappeared is the sleep latency. The time from 1 minute after the righting reflex disappeared to the point that the righting reflex returned is sleep time.

[4] = Metabolism of l-stepholidine (statement only, no method)
[5] = system: PCP-induced high spontaneous activity in mice; test: PCP-induced high spontaneous activity test in mice; type: in vivo, Male ICR mice; settings: oral, PCP-induced high spontaneous activity in mice
Method: PCP (phencylidine) was dissolved in physiological saline to prepare a 7 mg/kg solution. The test compound was formulated with a 0.5% CMC-Na solution to a solution with suitable concentration, ready-to-use. Male ICR mice were 18-22 g. Mice were randomly divided into a solvent control group, a model control group, a positive control group, and each test drug group during the test. There were 8 mice in each group. Mice in each group were given each test drug by gavage. 45 minutes after the test drug was administered, mice were injected with a PCP (7 mg/kg) solution intraperitoneally. The spontaneous, open field video analysis system was used to record the mouse movement trajectory within 45 min after administration of test drug or saline, and then the mouse movement trajectory within 75 min after PCP administration. Spontaneous, open field video analysis system was used to analyze the mouse's movement trajectory, and the total distance of the movement of the mice in each group was counted. The result was expressed as mean±SD. Results were analyzed by one-way analysis of variance.

Row | Structure (SMILES) | pIC50 [1] | pIC50 [2] | sleep time ([3]; 1 mg/kg single intragastric administration, sodium pentobarbital 25 mg/kg ip 60 minutes later) | sleep latency ([3]; 3 mg/kg single intragastric administration, sodium pentobarbital 25 mg/kg ip 60 minutes later, FIG. 1, *P<0.05 vs model group) | sleep time ([3]; 3 mg/kg single intragastric administration, sodium pentobarbital 25 mg/kg ip 60 minutes later) | hypnotic effect (overall) ([3]; PCPA-induced insomnia rats, 1 and 3 mg/kg intragastric) | metabolism [4] | duration of effect / efficacy [5]
1 | COc1cc2c(cc1NS(C)(=O)=O)[C@@H]1Cc3ccc(OC)c(OC)c3CN1CC2 [Example 60, (S)-2-methanesulfonylamino-3,9,10-trimethoxy-6,8,13,13a-tetrahydro-5H-dibenzo[a,g] quinolizine] | 8.21 | 6.28 | significantly prolong | significantly reduce | prolong | good hypnotic effect | – | –
2 | COc1cc2c(cc1O)[C@@H]1Cc3ccc(O)c(OC)c3CN1CC2 [l-SPD, L-Stepholidine, reference compound] | 7.43 | 8.11 | – | – | – | – | fast metabolism | short duration of effect
